Assay results taken from patent US20170137419A1, “DERIVATIVES OF 2H-PYRAZOLO[4,3-C]QUINOLIN-3(5H)-ONE AND USE THEREOF” (UNIVERSITE DU DROIT ET DE LA SANTE LILLE 2, priority 2014, published 2017).
Read-outs that look alike come from different tables or passages of the source.

Legend:
hCB2 [1] = molecular target: T1, hCB2 (Homo sapiens, UniProt P34972); assay: Binding affinity hCB2, [3H]-CP-55,940 displacement
Experimental: (§1) Measurement of Affinity. The binding studies were carried out in accordance with the protocols described by El Bakali et al. (El Bakali, J.; Muccioli, G. G.; Renault, N.; Pradal, D.; Body-Malapel, M.; Djouina, M.; Hamtiaux, L.; Andrzejak, V.; Desreumaux, P.; Chavatte, P.; Lambert, D. M.; Millet, R. 4-Oxo-1,4-Dihydropyridines as Selective CB2 Cannabinoid Receptor Ligands: Structural Insights into the Design of a Novel Inverse Agonist Series. J. Med. Chem. 2010, 53, 7918-7931) but applying a small modification. Briefly, the [3H]-CP-55,940 (0.5 nM) chosen as a radioligand for the CB1 and CB2 human receptors is added to 6 μg of membranes resuspended in 550 μl (final volume) of buffer (20 mM Hepes, 5 mM MgCl2, 1 mM EDTA, 0.3% bovine serum albumin, pH 7.4). After 1 hour at 30° C., incubation is stopped and the solution is quickly filtered on Harvester, through the “Unifilter 96 (PerkinElmer)” filter previously saturated with bonding buffer (20 mM Hepes, 5 mM MgCl2, 1 mM EDTA, 0.3% bovine serum albumin, pH 7.4), and then washed 20 times with iced binding buffer without serum albumin. The radioactivity of the filters was measured using the “TopCount NXT Microplate Scintillation Counter (PerkinElmer)” after addition of 60 μl of “MicroScint 40 (PerkinElmer)” scintillation liquid. The experiments were carried out in triplicate. The non-specific binding was determined in the presence of 5 μM (R)-(+)-WIN 55,212-2 (Sigma).
(§2) Analysis of the Data. The values of Ki and EC50 were determined by non-linear regression carried out by the “GraphPad Prism 5.0” program (GraphPad Software, San Diego). The statistical analysis of the results of the [^35S]-GTPγS dosing was carried out by means of the “Student” test.

hCB1 = hCB1 (Homo sapiens, UniProt P21554); assay: Binding affinity hCB1, [3H]-CP-55,940 displacement
hCB1, sequence (P21554 whole entry): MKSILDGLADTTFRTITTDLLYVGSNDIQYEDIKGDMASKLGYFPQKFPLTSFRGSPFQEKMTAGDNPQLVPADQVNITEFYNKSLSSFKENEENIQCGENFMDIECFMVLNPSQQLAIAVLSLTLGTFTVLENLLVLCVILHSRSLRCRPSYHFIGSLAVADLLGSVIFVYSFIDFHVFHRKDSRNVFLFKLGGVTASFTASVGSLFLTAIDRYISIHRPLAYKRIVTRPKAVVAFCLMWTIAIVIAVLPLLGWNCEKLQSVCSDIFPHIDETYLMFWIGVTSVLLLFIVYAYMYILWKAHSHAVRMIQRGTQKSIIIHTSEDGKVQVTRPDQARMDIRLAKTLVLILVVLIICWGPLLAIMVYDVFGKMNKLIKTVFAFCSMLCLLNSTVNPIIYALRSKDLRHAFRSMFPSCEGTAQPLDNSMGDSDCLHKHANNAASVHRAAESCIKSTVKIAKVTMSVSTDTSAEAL
Experimental: as §1, §2

hCB2 [2] = molecular target: T1, hCB2; assay: [35S]-GTPγS functional activity (hCB2); format: biochemical
Experimental: Dosing of [^355]-GTPγS. The studies were carried out at 30° C. in tubes containing 10 μg of protein in 0.5 ml (final volume) of buffer (20 mM Hepes, 10 mM MgCl2, 100 mM NaCl, 0.1% bovine serum albumin, pH 7.4) supplemented with 30 μm of GDP. The dosing was initiated by the addition of [^35S]-GTPγS (0.1 nM, final concentration). After 1 hour at 30° C., the incubation was stopped and the solution was quickly filtered on the “Unifilter-96 GF/B” filter and washed 20 times with iced bonding buffer. The radioactivity on the filters was counted as mentioned above. The non-specific binding was measured in the presence of 100 μm of Gpp(NH)p. The results were expressed in EC50 (nM) and Emax (%).
as §2

colitis caused by TNBS = assay: Model of colitis caused by TNBS in mice; format: in vivo, C57B16 male mice
Experimental: C57B16 male mice (n=10 per group) have free access to food and water. To cause colitis, the mice are anaesthetised for 90-120 minutes by subcutaneous administration of zylasine-ketamine (50 mg/kg) diluted in physiological serum, then receive an intrarectal administration of TNBS (40 μl, 150 mg/kg) diluted in a 1:1 mixture of 0.9% NaCl and 100% ethanol. The novel CB2 agonists are diluted in 0.5% carboxymethyl cellulose (Sigma-Aldrich, Saint Quentin Fallavier, France) for a dose administered by gavage of 0.1, 1 and 10 mg/kg body weight/day. JWH133, a known CB2 agonist (Kimball E S, Schneider C R, Wallace N H, Hornby P J. Agonists of cannabinoid receptor 1 and 2 inhibit experimental colitis induced by oil of mustard and by dextran sulfate soldium. Am. J. Physiol. Gastrointest. Liver Physiol., 2006, 291, G364-71.), is administered intraperitoneally at a dose of 0.1 mg/kg body weight/day. The animals are euthanised 5 days after the administration of TNBS. The intensity of the colitis at macroscopic and histological levels is assessed in each colon blind by 2 investigators. The scale of the macroscopic scores of the lesions ranges from 0 to 10 according to characteristics reflecting inflammation, such as hyperaemia, thickening of the intestinal wall and the extent of ulcerations. A localised colon biopsy precisely 2 cm above the anal channel is used for histological analysis following a May-Grunwald Giemsa colouring. The histological score varies between 0 and 6 and takes into account the degree of inflammatory infiltrate, the presence of erosion, ulcerations and necrosis of the mucosa, and the level of extension of the lesions in depth and on the surface reached. Two other colon biopsies are frozen and used to analyse the levels of mRNA of inflammatory cytokines by PCR in real time. The total mRNAs of the colon are extracted using the Nucleospin RNAII kit (Macherey Nagel, Hoerdt, France) and then retrotranscripts using the High-Capacity cDNA Reverse Transcription Kit (Applied Biosystems), Foster City, USA). The real-time PCR is carried out with SYBR Green (Applied Biosystems, Foster City, USA). The specific primers for TNF-alpha (TNF-alpha F and TNF-alpha R), IL-1 beta (IL1-beta F and IL1-beta R) and POLR2A (POLR2A F and POLR2A R) as reference gene were chosen using the Primer Express 2 software (Applied Biosystems, Foster City, USA). For the graphical representation of the quantitative PCR data, the values of Ct obtained for the target genes are compared with those of the reference gene, using the ΔΔCt method, that is to say: ΔΔCt=(Ct of the target gene−Ct of the reference gene) treated mouse−(Ct of the target gene−Ct of the reference gene) non-treated mouse, and the final data are derived from 2-ΔΔCt.
Compound 26 was evaluated in mice in a model of colitis caused by TNBS in accordance with a described protocol (Desreumaux, P.; Dubuquoy, L.; Nutten, S.; Peuchmaur, M.; Englaro, W.; Schoonjans, K.; Derijard, B.; Desvergne, B.; Wahli, W.; Chambon, P.; Leibowitz, M. D.; Colombel, J. F.; Auwerx, J. Attenuation of Colon Inflammation Through Activators of the Retinoid X Receptor (RXR)/Peroxisome Proliferator-Activated Receptor Gamma (PPARgamma) Heterodimer. A Basis for New Therapeutic Strtegies. J. Exp. Med. 2001, 193, 827-838). Thus compound 26 was administered orally in carboxymethyl cellulose (CMC) each day at a dose of 0.1, 1 and 10 mg/kg for seven days, and two days before the induction of colitis. A control with an administration of CMC alone was effected.

[3] = Table 2, radioligand [3H]-CP-55,940 0.5 nM, read-out: Binding affinity hCB2 Ki
[4] = Table 2, radioligand [3H]-CP-55,940 0.5 nM, read-out: Binding affinity hCB1 Ki
[5] = Table 3, radioligand [3H]-CP-55,940 0.5 nM, read-out: Binding affinity hCB1 Ki

T1 sequence (P34972 whole entry): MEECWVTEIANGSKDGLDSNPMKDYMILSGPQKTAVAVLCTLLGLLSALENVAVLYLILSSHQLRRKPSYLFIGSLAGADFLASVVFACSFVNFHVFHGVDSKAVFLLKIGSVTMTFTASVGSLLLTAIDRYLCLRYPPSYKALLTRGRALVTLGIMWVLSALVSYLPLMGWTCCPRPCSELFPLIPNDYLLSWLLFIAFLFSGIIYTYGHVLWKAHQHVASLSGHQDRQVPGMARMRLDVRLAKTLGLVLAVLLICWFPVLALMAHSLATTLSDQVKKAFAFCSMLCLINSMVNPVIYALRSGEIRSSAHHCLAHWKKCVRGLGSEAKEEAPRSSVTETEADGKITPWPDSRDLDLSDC

CCCCCn1cc2c(=O)[nH]nc-2c2ccccc21 [Compound 8, 5-Pentyl-2H-pyrazolo[4,3-c]quinolin-3(5H)-one]
Ki (hCB2 [1]; [3]): > 3 µM
Ki (hCB1; [4]): > 3 µM

CCCCCn1cc2c(=O)n(C3CCCCC3)nc-2c2ccccc21 [Compound 16, 2-Cyclohexyl-5-pentyl-2H-pyrazolo[4,3-c]quinolin-3 (5H)-one]
Ki (hCB2 [1]; [3]): 0.0188 ± 0.0033 µM
Ki (hCB1): > 3 µM
EC50 (hCB2 [2]): 0.204 ± 0.041 µM
Emax (hCB2 [2]): 160 ± 3%

CCCCCn1cc2c(=O)n(Cc3ccccc3)nc-2c2ccccc21 [Compound 19, 2-Benzyl-5-pentyl-2H-pyrazolo[4,3-c]quinolin-3(5H)-one]
Ki (hCB2 [1]): > 3 µM
Ki (hCB1): > 3 µM

CCCCCn1nc2c3ccccc3n(CCCCC)cc-2c1=O [Compound 21, 2,5-Dipentyl-2H-pyrazolo[4,3-c]quinolin-3(5H)-one]
Ki (hCB2 [1]; [3]): 0.0043 ± 0.0003 µM
Ki (hCB1): > 3 µM

CCCCCCn1nc2c3ccccc3n(CCCCC)cc-2c1=O [Compound 22, 2-Hexyl-5-pentyl-2H-pyrazolo[4,3-c]quinolin-3(5H)-one]
Ki (hCB2 [1]; [3]): 0.0077 ± 0.0003 µM
Ki (hCB1): > 3 µM

CCCCCn1cc2c(=O)n(CC3CC3)nc-2c2ccccc21 [Compound 23, 2-(Cyclopropylmethyl)-5-pentyl-2H-pyrazolo[4,3-c]quinolin-3(5H)-one]
Ki (hCB2 [1]; [3]): 0.0104 ± 0.0031 µM
Ki (hCB1; [4]): > 3 µM

CCCCCn1cc2c(=O)n(CC3CCCCC3)nc-2c2ccccc21 [Compound 24, 2-(Cyclohexylmethyl)-5-pentyl-2H-pyrazolo[4,3-c]quinolin-3(5H)-one]
Ki (hCB2 [1]; [3]): 0.00062 ± 3e-05 µM
Ki (hCB1): > 3 µM
EC50 (hCB2 [2]): 0.0143 ± 0.004 µM
Emax (hCB2 [2]): 149 ± 4%

CCCCCn1cc2c(=O)n(CCC3CCCCC3)nc-2c2ccccc21 [Compound 25, 2-(2-Cyclohexylethyl)-5-pentyl-2H-pyrazolo[4,3-c]quinolin-3(5H)-one]
Ki (hCB2 [1]; [3]): 0.008 ± 0.0004 µM
Ki (hCB1): > 3 µM
EC50 (hCB2 [2]): 0.0054 ± 0.0011 µM
Emax (hCB2 [2]): 141 ± 3%

CCCCCn1cc2c(=O)n(CC34CC5CC(CC(C5)C3)C4)nc-2c2ccccc21 [Compound 26, 2-(1-Adamantylmethyl)-5-pentyl-2H-pyrazolo[4,3-c]quinolin-3(5H)-one]
Ki (hCB2 [1]; [3]): 0.00039 ± 3e-05 µM
EC50 (hCB2 [2]): 0.064 ± 0.01 µM
Emax (hCB2 [2]): 163 ± 4%
Overall efficacy against colitis (colitis caused by TNBS; oral administration): effective in mice against colitis in a dose-dependent manner
Loss of body weight (colitis caused by TNBS; oral daily treatment 0.1, 1 and 10 mg/kg, five days after TNBS): attenuates in a dose-dependent manner the loss of weight
Macroscopic score (colitis caused by TNBS; oral, 10 mg/kg, scale 0 to 10, printed as 1.7 versus 1.9): 1.7
Mortality / survival rate (colitis caused by TNBS; oral, 0.1, 1 and 10 mg/kg daily, versus untreated mice (FIG. 1A)): reduction in mortality
Macroscopic score (colitis caused by TNBS; oral, 0.1, 1 and 10 mg/kg, colon after euthanasia (FIG. 2A)): reduces the macroscopic scores (FIG. 2A) in a dose-dependent manner
Attenuation of histological scores (colitis caused by TNBS; oral, histological score scale 0 to 6 (FIG. 2B)): 65%

CCCCCn1cc2c(=O)n(CCC34CC5CC(CC(C5)C3)C4)nc-2c2ccccc21 [Compound 27, 2-(1-Adamantylethyl)-5-pentyl-2H-pyrazolo[4,3-c]quinolin-3 (5H)-one]
Ki (hCB2 [1]; [3]): 0.0261 ± 0.0038 µM

CCCCn1cc2c(=O)n(CC3CCCCC3)nc-2c2ccccc21 [Compound 40, 2-(Cyclohexylmethyl)-5-butyl-2H-pyrazolo[4,3-c]quinolin-3(5H)-one]
Ki (hCB2 [1]): 0.0148 µM
Ki (hCB1; [5]): > 10 µM
melting point: 216 °C

CCCCCCn1cc2c(=O)n(CC3CCCCC3)nc-2c2ccccc21 [Compound 41, 2-(Cyclohexylmethyl)-5-hexyl-2H-pyrazolo[4,3-c]quinolin-3(5H)-one]
Ki (hCB2 [1]): 0.0311 µM
Ki (hCB1; [5]): > 10 µM
melting point: 193 °C

O=c1c2cn(CC3CCOCC3)c3ccccc3c-2nn1CC1CCCCC1 [Compound 42, 2-(Cyclohexylmethyl)-5-(tetrahydro-2H-4-pyranylmethyl)-pyrazolo[4,3-c]quinolin-3(5H)-one]
Ki (hCB2 [1]): 0.00532 µM
Ki (hCB1): 0.52 µM
melting point: > 250 °C

O=c1c2cn(CCCC(F)(F)F)c3ccccc3c-2nn1CC1CCCCC1 [Compound 43, 2-(Cyclohexylmethyl)-5-(4,4,4-trifluorobutyl)-2H-pyrazolo[4,3-c]quinolin-3(5H)-one]
Ki (hCB2 [1]): 0.00617 µM
Ki (hCB1; [5]): 1.68 µM
melting point: 224 °C
